# Literature values, collected in patent US20180228146A1, “INSECTICIDAL COMPOSITION AND METHOD” (priority 2014, published 2018).
smiles,measurement,setting,value
"CCOP(=S)(OCC)Oc1nc(Cl)c(Cl)cc1Cl [chlorpyrifos, O,O-diethyl O-3,5,6-trichloro-2-pyridyl phosphorothioate]",Henry's law constant at 25° C.,25° C.,6.76 × 10^−1 Pa m^3 mol^−1
same,Vapour pressure at 25° C.,25° C.,2.7 mPa
same,Solubility Acetone (25° C.),"acetone, 25° C.",6500 g/kg
same,Solubility Benzene (25° C.),"benzene, 25° C.",7900 g/kg
same,Solubility Carbon disulfide (25° C.),"carbon disulfide, 25° C.",5900 g/kg
same,Solubility Chloroform (25° C.),"chloroform, 25° C.",6300 g/kg
same,Solubility Diethyl ether (25° C.),"diethyl ether, 25° C.",5100 g/kg
same,Stability,"hydrolysis, with pH",Rate of hydrolysis increases
same,Solubility Iso-octanol (25° C.),"iso-octanol, 25° C.",790 g/kg
same,Solubility Methanol (25° C.),"methanol, 25° C.",450 g/kg
same,"DT50 (phosphate buffer, pH 7, 15° C.)","phosphate buffer, pH 7, 15° C.",100 d
same,Solubility water (25° C.),"water, 25° C.",1.4 µg/mL
same,"DT50 (water, pH 8, 25° C.)","water, pH 8, 25° C.",1.55 d
same,Solubility Xylene (25° C.),"xylene, 25° C.",5000 g/kg
